Source: paper PMC7351026, “Serum Half-Lives for Short- and Long-Chain Perfluoroalkyl Acids after Ceasing Exposure from Drinking Water Contaminated by Firefighting Foam” (Environmental Health Perspectives, 2020)

Legend:
[1] = PFAS levels in serum samples of airport employees (LC/MS/MS)
Method in brief: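 Serum from airport employees, drawn after contaminated drinking-water exposure ended, up to five monthly rounds, all reanalyzed in one batch. 25 μL serum precipitated with acetonitrile/methanol plus labeled internal standards; LC/MS/MS on BEH C18 with ammonium acetate/methanol gradient, calibrants prepared in FBS.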

[2] = Individual serum elimination rate and half-life (linear regression per employee); details: individual estimate;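 for HL (half-life): half-life in years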
Method in brief: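 Log-transformed serum PFAS concentrations regressed on days since clean bottled water supply, per employee, assuming one-compartment first-order elimination. Individual k taken as −β (negative slope); half-life as ln2/k for each PFAS. No half-life calculated when β was positive.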

[3] = 1st sampling (September 2018), count 17
[4] = 2nd sampling (October 2018), count 17
[5] = 3rd sampling (November, 2018), count 17
[6] = 4th sampling (December 2018), count 16
[7] = 5th sampling (January 2019), count 16
[8] = first serum samples, all 26 airport employees
[9] = median of first serum samples, all 26 airport employees

SMILES: O=S(=O)(O)C(F)(F)C(F)(F)C(F)(F)C(F)(F)C(F)(F)F [PFPeS, perfluoropentane sulfonic acid]
- Serum PFAS level, 25 percentile [1, 3]: 5.8
- Serum PFAS level, 75 percentile [1, 3]: 13
- Serum PFAS level, Max [1, 3]: 17
- Serum PFAS level, Median [1, 3]: 7.6
- Serum PFAS level, Min [1, 3]: 3.6
- Serum PFAS level, 25 percentile [1, 4]: 4.9
- Serum PFAS level, 75 percentile [1, 4]: 11
- Serum PFAS level, Max [1, 4]: 14
- Serum PFAS level, Median [1, 4]: 6.8
- Serum PFAS level, Min [1, 4]: 2.3
- Serum PFAS level, 25 percentile [1, 5]: 4.4
- Serum PFAS level, 75 percentile [1, 5]: 11
- Serum PFAS level, Max [1, 5]: 14
- Serum PFAS level, Median [1, 5]: 6.3
- Serum PFAS level, Min [1, 5]: 2.1
- Serum PFAS level, 25 percentile [1, 6]: 4.0
- Serum PFAS level, 75 percentile [1, 6]: 11
- Serum PFAS level, Max [1, 6]: 14
- Serum PFAS level, Median [1, 6]: 6.5
- Serum PFAS level, Min [1, 6]: 1.8
- Serum PFAS level, 25 percentile [1, 7]: 4.4
- Serum PFAS level, 75 percentile [1, 7]: 9.9
- Serum PFAS level, Max [1, 7]: 13
- Serum PFAS level, Median [1, 7]: 6.2
- Serum PFAS level, Min [1, 7]: 1.9
- Serum level in the first samples, median (range) ([1]; all 26 airport employees): 6.9 (1.4–17) ng/mL
- PFAS in first serum sample, median (range) ([1]; employees participated in first blood sampling and repeated blood and urine sampling, N=17): 7.6 (3.6–17) ng/mL
- PFAS in first serum sample, median (range) ([1]; employees participated in first blood sampling only, N=9, 11-14 d after end of exposure): 3.5 (1.4–11) ng/mL
- Serum level, median ([1]; exposed employees 5 months after exposure ceased): 6.22 ng/mL
- Initial serum PFAS level, max ([1]; females (N=7)): 15 ng/mL
- Initial serum PFAS level, median ([1]; females (N=7)): 5.1 ng/mL
- Initial serum PFAS level, min ([1]; females (N=7)): 3.5 ng/mL
- Relative composition of PFAS in serum, molar concentration basis [1, 8]: 7.3%
- Relative composition of PFAS in serum, weight basis [1, 8]: 6.3%
- Initial serum PFAS level, Max ([1]; males (N=19)): 17 ng/mL
- Initial serum PFAS level, Min ([1]; males (N=19)): 1.4 ng/mL
- Initial serum PFAS level, median ([1]; males (N=19)): 7.2 ng/mL
- Serum concentration, molar basis [1, 9]: 0.020
- Serum concentration, weight basis [1, 9]: 6.9
- Serum level, median (range) ([1]; second to fifth samplings, 17 airport employees): 6.5 (1.8–14) ng/mL
- Elimination rate ([2]; subject 1, 5 samples): 0.7 yearly
- HL (half-life) ([2]; subject 1, 5 samples): 1.0 year
- Elimination rate ([2]; subject 2, 5 samples): 0.6 yearly
- HL (half-life) ([2]; subject 2, 5 samples): 1.2 year
- Elimination rate ([2]; subject 3, 5 samples): 0.7 yearly
- HL (half-life) ([2]; subject 3, 5 samples): 0.9 year
- Elimination rate ([2]; subject 4, 5 samples): 0.8 yearly
- HL (half-life) ([2]; subject 4, 5 samples): 0.8 year
- Elimination rate ([2]; subject 5, 5 samples): 0.4 yearly
- HL (half-life) ([2]; subject 5, 5 samples): 1.7 year
- Elimination rate ([2]; subject 6, 4 samples): 0.9 yearly
- HL (half-life) ([2]; subject 6, 4 samples): 0.7 year
- Elimination rate ([2]; subject 7, 5 samples): 0.7 yearly
- HL (half-life) ([2]; subject 7, 5 samples): 0.9 year
- Elimination rate ([2]; subject 8, 5 samples): 0.5 yearly
- HL (half-life) ([2]; subject 8, 5 samples): 1.4 year
- Elimination rate ([2]; subject 9, 5 samples): 0.7 yearly
- HL (half-life) ([2]; subject 9, 5 samples): 1.0 year
- Elimination rate ([2]; subject 10, 5 samples): 0.6 yearly
- HL (half-life) ([2]; subject 10, 5 samples): 1.2 year
- Elimination rate ([2]; subject 11, 5 samples): 2.0 yearly
- HL (half-life) ([2]; subject 11, 5 samples): 0.3 year
- Elimination rate ([2]; subject 12, 5 samples): 1.1 yearly
- HL (half-life) ([2]; subject 12, 5 samples): 0.6 year
- Elimination rate ([2]; subject 13, 5 samples): 0.8 yearly
- HL (half-life) ([2]; subject 13, 5 samples): 0.9 year
- Elimination rate ([2]; subject 14, 4 samples): 1.2 yearly
- HL (half-life) ([2]; subject 14, 4 samples): 0.6 year
- Elimination rate ([2]; subject 15, 5 samples): 2.5 yearly
- HL (half-life) ([2]; subject 15, 5 samples): 0.3 year
- Elimination rate ([2]; subject 16, 5 samples): 0.4 yearly
- HL (half-life) ([2]; subject 16, 5 samples): 1.6 year
- Elimination rate ([2]; subject 17, 5 samples): 2.4 yearly
- HL (half-life) ([2]; subject 17, 5 samples): 0.3 year
